Data taken from the supplement of paper PMC11451515.

Experiments:
Settings in all cases: 48 h
[1] = system: SEM cells; test: AUC of viability dose-response curve (% viability x log10 dose units); higher = less sensitive
Procedure, shortened: (§1)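 Area under the curve was integrated by trapezoidal rule from a log-logistic fit of normalised viability, with curves exceeding full viability scaled and quality-control failures removed. The fit had four parameters over log10 doses. Viability came from CellTiter-Glo One luminescence, normalised per plate to DMSO and cell-free wells, after leukemia cells adapted to each medium (500 or 1000 cells/well, 1536-well plates) were exposed to library compounds in DMSO for 48 h at 37°C. The 11 threefold doses ran from 47 μM to 0.79 nM.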

[2] = system: P12-Ichikawa; test: as above
Procedure, shortened: as §1

[3] = system: NOMO1; test: as above
Procedure, shortened: as §1

[4] = system: SEM cells; test: cell viability relative to DMSO control; higher = less cytotoxic
Procedure, shortened: (§2)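 Viability was expressed as a per-plate percentage of DMSO wells, with cell-free wells as background. Leukemia cells (NOMO1 or SEM at 500 cells/well, P12-Ichikawa at 1000 cells/well) were adapted for at least four passages in each medium and seeded in 1536-well plates (5 μl). Library compounds in DMSO were pin-dosed over an 11-point threefold series from 47 μM to 0.79 nM, and CellTiter-Glo One luminescence was read after 48 h at 37°C.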

[5] = system: P12-Ichikawa; test: as above
Procedure, shortened: as §2

[6] = system: NOMO1; test: as above
Procedure, shortened: as §2

Cn1cnc(N)c2ncnc1-2
AUC of viability dose-response curve
Settings	[1]	[2]	[3]
HPLM + 10% dialyzed FBS	367	396	375
RPMI 5 mM glucose + 10% FBS	326	395	406
RPMI 5 mM glucose + 10% dialyzed FBS	362	399	398

cell viability [%]
Settings	[4]	[5]	[6]
HPLM + 10% dialyzed FBS, 0.000781 µM	80.5	110	111
HPLM + 10% dialyzed FBS, 0.00234 µM	96.4	116	130
HPLM + 10% dialyzed FBS, 0.00702 µM	111	125	108
HPLM + 10% dialyzed FBS, 0.0211 µM	103	127	117
HPLM + 10% dialyzed FBS, 0.0632 µM	109	115	139
HPLM + 10% dialyzed FBS, 0.19 µM	88.9	116	92.4
HPLM + 10% dialyzed FBS, 0.569 µM	112	124	139
HPLM + 10% dialyzed FBS, 1.71 µM	80.3	110	80.3
HPLM + 10% dialyzed FBS, 5.12 µM	32	88.5	63.5
HPLM + 10% dialyzed FBS, 15.4 µM	5	5.12	11.5
HPLM + 10% dialyzed FBS, 46.1 µM	4.54	4.04	6.59
RPMI 5 mM glucose + 10% FBS, 0.000781 µM	90.9	97.1	99.7
RPMI 5 mM glucose + 10% FBS, 0.00234 µM	99	119	113
RPMI 5 mM glucose + 10% FBS, 0.00702 µM	92.9	114	117
RPMI 5 mM glucose + 10% FBS, 0.0211 µM	87.1	117	119
RPMI 5 mM glucose + 10% FBS, 0.0632 µM	87.8	121	131
RPMI 5 mM glucose + 10% FBS, 0.19 µM	99.5	114	111
RPMI 5 mM glucose + 10% FBS, 0.569 µM	87.2	126	118
RPMI 5 mM glucose + 10% FBS, 1.71 µM	63.6	113	117
RPMI 5 mM glucose + 10% FBS, 5.12 µM	14.7	83.6	94.7
RPMI 5 mM glucose + 10% FBS, 15.4 µM	4.31	6.1	18.5
RPMI 5 mM glucose + 10% FBS, 46.1 µM	3.65	3.21	9.02
RPMI 5 mM glucose + 10% dialyzed FBS, 0.000781 µM	108	97.9	102
RPMI 5 mM glucose + 10% dialyzed FBS, 0.00234 µM	109	109	124
RPMI 5 mM glucose + 10% dialyzed FBS, 0.00702 µM	115	117	118
RPMI 5 mM glucose + 10% dialyzed FBS, 0.0211 µM	84.9	128	130
RPMI 5 mM glucose + 10% dialyzed FBS, 0.0632 µM	112	123	135
RPMI 5 mM glucose + 10% dialyzed FBS, 0.19 µM	98.6	130	113
RPMI 5 mM glucose + 10% dialyzed FBS, 0.569 µM	118	124	120
RPMI 5 mM glucose + 10% dialyzed FBS, 1.71 µM	82.6	113	118
RPMI 5 mM glucose + 10% dialyzed FBS, 5.12 µM	24.8	91.9	79.7
RPMI 5 mM glucose + 10% dialyzed FBS, 15.4 µM	5.27	7.88	19.3
RPMI 5 mM glucose + 10% dialyzed FBS, 46.1 µM	4.09	3.87	11.9

COc1cc2c(cc1OC)CN(CCc1ccc(NC(=O)c3cccc4c(=O)c5cccc(OC)c5[nH]c34)cc1)CC2
AUC of viability dose-response curve
Settings	[1]	[2]	[3]
HPLM + 10% dialyzed FBS	380	326	348
RPMI 5 mM glucose + 10% FBS	276	372	391
RPMI 5 mM glucose + 10% dialyzed FBS	320	366	395

cell viability [%]
Settings	[4]	[5]	[6]
HPLM + 10% dialyzed FBS, 0.000781 µM	84.4	101	97.2
HPLM + 10% dialyzed FBS, 0.00234 µM	98.8	105	96.8
HPLM + 10% dialyzed FBS, 0.00702 µM	103	107	114
HPLM + 10% dialyzed FBS, 0.0211 µM	105	118	121
HPLM + 10% dialyzed FBS, 0.0632 µM	106	111	122
HPLM + 10% dialyzed FBS, 0.19 µM	109	112	121
HPLM + 10% dialyzed FBS, 0.569 µM	105	123	109
HPLM + 10% dialyzed FBS, 1.71 µM	105	21.1	45
HPLM + 10% dialyzed FBS, 5.12 µM	36.4	11.5	29.8
HPLM + 10% dialyzed FBS, 15.4 µM	8.23	5	16.8
HPLM + 10% dialyzed FBS, 46.1 µM	5.66	3.03	11.3
RPMI 5 mM glucose + 10% FBS, 0.000781 µM	91.1	96.9	123
RPMI 5 mM glucose + 10% FBS, 0.00234 µM	85.9	101	112
RPMI 5 mM glucose + 10% FBS, 0.00702 µM	82.9	102	127
RPMI 5 mM glucose + 10% FBS, 0.0211 µM	90.8	111	118
RPMI 5 mM glucose + 10% FBS, 0.0632 µM	77.2	109	119
RPMI 5 mM glucose + 10% FBS, 0.19 µM	83.5	112	116
RPMI 5 mM glucose + 10% FBS, 0.569 µM	85.2	113	122
RPMI 5 mM glucose + 10% FBS, 1.71 µM	9.76	119	112
RPMI 5 mM glucose + 10% FBS, 5.12 µM	8.45	25.2	62.8
RPMI 5 mM glucose + 10% FBS, 15.4 µM	5.57	5.14	23.7
RPMI 5 mM glucose + 10% FBS, 46.1 µM	4.07	2.82	14.1
RPMI 5 mM glucose + 10% dialyzed FBS, 0.000781 µM	108	104	112
RPMI 5 mM glucose + 10% dialyzed FBS, 0.00234 µM	112	109	114
RPMI 5 mM glucose + 10% dialyzed FBS, 0.00702 µM	104	112	127
RPMI 5 mM glucose + 10% dialyzed FBS, 0.0211 µM	112	111	113
RPMI 5 mM glucose + 10% dialyzed FBS, 0.0632 µM	122	113	130
RPMI 5 mM glucose + 10% dialyzed FBS, 0.19 µM	116	121	130
RPMI 5 mM glucose + 10% dialyzed FBS, 0.569 µM	94.3	110	133
RPMI 5 mM glucose + 10% dialyzed FBS, 1.71 µM	24.4	103	133
RPMI 5 mM glucose + 10% dialyzed FBS, 5.12 µM	11.2	20	52.3
RPMI 5 mM glucose + 10% dialyzed FBS, 15.4 µM	5.96	6.37	35.2
RPMI 5 mM glucose + 10% dialyzed FBS, 46.1 µM	3.77	2.85	24.2

CC(C)[C@H](C(=O)Nc1ccc(C(=O)NO)cc1)c1ccccc1
AUC of viability dose-response curve
Settings	[1]	[2]	[3]
HPLM + 10% dialyzed FBS	340	351	361
RPMI 5 mM glucose + 10% FBS	346	346	368
RPMI 5 mM glucose + 10% dialyzed FBS	342	350	364

Settings	cell viability [%]
[4], RPMI 5 mM glucose + 10% FBS, 0.000781 µM	115
[4], RPMI 5 mM glucose + 10% FBS, 0.00234 µM	116
[4], RPMI 5 mM glucose + 10% FBS, 0.00702 µM	126
[4], RPMI 5 mM glucose + 10% FBS, 0.0211 µM	140
[4], RPMI 5 mM glucose + 10% FBS, 0.0632 µM	139
[4], RPMI 5 mM glucose + 10% FBS, 0.19 µM	148
[4], RPMI 5 mM glucose + 10% FBS, 0.569 µM	133
[4], RPMI 5 mM glucose + 10% FBS, 1.71 µM	74.7
[4], RPMI 5 mM glucose + 10% FBS, 5.12 µM	11.3
[4], RPMI 5 mM glucose + 10% FBS, 15.4 µM	9.31
[4], RPMI 5 mM glucose + 10% FBS, 46.1 µM	9.34
[4], RPMI 5 mM glucose + 10% dialyzed FBS, 0.000781 µM	105
[4], RPMI 5 mM glucose + 10% dialyzed FBS, 0.00234 µM	101
[4], RPMI 5 mM glucose + 10% dialyzed FBS, 0.00702 µM	121
[4], RPMI 5 mM glucose + 10% dialyzed FBS, 0.0211 µM	121
[4], RPMI 5 mM glucose + 10% dialyzed FBS, 0.0632 µM	120
[4], RPMI 5 mM glucose + 10% dialyzed FBS, 0.19 µM	120
[4], RPMI 5 mM glucose + 10% dialyzed FBS, 0.569 µM	111
[4], RPMI 5 mM glucose + 10% dialyzed FBS, 1.71 µM	56.6
[4], RPMI 5 mM glucose + 10% dialyzed FBS, 5.12 µM	8.81
[4], RPMI 5 mM glucose + 10% dialyzed FBS, 15.4 µM	8.39
[4], RPMI 5 mM glucose + 10% dialyzed FBS, 46.1 µM	8.47
[5], HPLM + 10% dialyzed FBS, 0.000781 µM	117
[5], HPLM + 10% dialyzed FBS, 0.00234 µM	120
[5], HPLM + 10% dialyzed FBS, 0.00702 µM	121
[5], HPLM + 10% dialyzed FBS, 0.0211 µM	129
[5], HPLM + 10% dialyzed FBS, 0.0632 µM	125
[5], HPLM + 10% dialyzed FBS, 0.19 µM	125
[5], HPLM + 10% dialyzed FBS, 0.569 µM	118
[5], HPLM + 10% dialyzed FBS, 1.71 µM	87.9
[5], HPLM + 10% dialyzed FBS, 5.12 µM	7.68
[5], HPLM + 10% dialyzed FBS, 15.4 µM	5.55
[5], HPLM + 10% dialyzed FBS, 46.1 µM	6.05
[6], RPMI 5 mM glucose + 10% FBS, 0.000781 µM	113
[6], RPMI 5 mM glucose + 10% FBS, 0.00234 µM	108
[6], RPMI 5 mM glucose + 10% FBS, 0.00702 µM	122
[6], RPMI 5 mM glucose + 10% FBS, 0.0211 µM	138
[6], RPMI 5 mM glucose + 10% FBS, 0.0632 µM	119
[6], RPMI 5 mM glucose + 10% FBS, 0.19 µM	131
[6], RPMI 5 mM glucose + 10% FBS, 0.569 µM	125
[6], RPMI 5 mM glucose + 10% FBS, 1.71 µM	118
[6], RPMI 5 mM glucose + 10% FBS, 5.12 µM	19
[6], RPMI 5 mM glucose + 10% FBS, 15.4 µM	8.3
[6], RPMI 5 mM glucose + 10% FBS, 46.1 µM	8.21
